# Laboratory results from ChEMBL document CHEMBL5120938, “Development of BET Inhibitors as Potential Treatments for Cancer: Optimization of Pharmacokinetic Properties” (ACS Med Chem Lett, 2022).
# Legend:
# [1] = Metabolic stability in alamethicin treated CD-1 mouse liver microsomes assessed as half life pretreated for 5 mins followed by NADPH addition and measured up to 45 mins by LC-MS/MS analysis; format: ADME, Microsome; details: time < 50 min
# [2] = Metabolic stability in alamethicin treated Beagle dog liver microsomes assessed as half life pretreated for 5 mins followed by NADPH addition and measured up to 45 mins by LC-MS/MS analysis; format: ADME, Canis lupus familiaris, Microsome; details: time < 50 min
# [3] = Metabolic stability in alamethicin treated human liver microsomes assessed as half life pretreated for 5 mins followed by NADPH addition and measured up to 45 mins by LC-MS/MS analysis; format: ADME, Microsome; details: time < 50 min
# [4] = Efflux ratio of apparent permeability across […] in human Caco-2 cells after 2 hrs by liquid scintillation counting analysis; format: ADME, cell-based; details: caco-2, 2 h
# [5] = Inhibition of c-MYC expression in human JJN-3R cells measured after 4 hrs; format: functional, cell-based
# [6] = Metabolic stability in alamethicin treated Sprague-Dawley rat liver microsomes assessed as half life pretreated for 5 mins followed by UDPGA addition and measured up to 45 mins by LC-MS/MS analysis; format: ADME, Microsome; details: time < 50 min
# [7] = Metabolic stability in alamethicin treated Beagle dog liver microsomes assessed as half life pretreated for 5 mins followed by UDPGA addition and measured up to 45 mins by LC-MS/MS analysis; format: ADME, Canis lupus familiaris, Microsome; details: Beagle, liver microsomes, time < 50 min
# [8] = Metabolic stability in alamethicin treated Sprague-Dawley rat liver microsomes assessed as half life pretreated for 5 mins followed by NADPH addition and measured up to 45 mins by LC-MS/MS analysis; format: ADME, Microsome; details: time < 50 min
# [9] = Metabolic stability in alamethicin treated cynomologus monkey liver microsomes assessed as half life pretreated for 5 mins followed by UDPGA addition and measured up to 45 mins by LC-MS/MS analysis; format: ADME, Macaca fascicularis, Microsome; details: cynomolgus monkey, time < 50 min
# [10] = molecular target: Bromodomain-containing protein 4 (Homo sapiens, UniProt O60885); test: Inhibition of N-terminal His6-tagged recombinant human BRD4 (44 to 168 residues) expressed in Escherichia coli BL21 (DE3) incubated for 60 mins by TR-FRET assay
# [11] = Metabolic stability in alamethicin treated CD-1 mouse liver microsomes assessed as half life pretreated for 5 mins followed by UDPGA addition and measured up to 45 mins by LC-MS/MS analysis; format: ADME, Microsome; details: time < 50 min
# [12] = Antiproliferative activity against human JJN-3R cells assessed as inhibition of cell proliferation measured after 72 hrs by MTS assay; format: functional, cell-based
# [13] = Metabolic stability in alamethicin treated cynomologus monkey liver microsomes assessed as half life pretreated for 5 mins followed by NADPH addition and measured up to 45 mins by LC-MS/MS analysis; format: ADME, Macaca fascicularis, Microsome; details: cynomolgus monkey, time < 50 min
# [14] = Metabolic stability in alamethicin treated human liver microsomes assessed as half life pretreated for 5 mins followed by UDPGA addition and measured up to 45 mins by LC-MS/MS analysis; format: ADME, Microsome; details: time < 50 min
# [15] = Half life in cynomologus monkey at 0.1 mg/kg, iv; format: ADME, organism-based, Macaca fascicularis; details: cynomolgus monkey, in vivo
# [16] = Antitumor activity against human BR1077F cells xenografted in mouse assessed as tumor growth inhibition at 3 mg/kg, po QD treated as 5 days on and 2 days off regimen for 2 weeks starting from 26 days post tumor implantation; format: functional; details: 336 h, read-out: TGI
# [17] = AUC in mouse at 5 mg/kg, po; format: ADME, organism-based; design: dose 5 mg/kg, route po; details: in vivo
# [18] = Oral bioavailability in dog at 0.3 mg/kg; format: ADME, organism-based, Canis lupus familiaris; details: in vivo
# [19] = Volume of distribution in rat at 5 mg/kg, po or 1 mg/kg, iv; format: ADME, organism-based; details: in vivo
# [20] = Drug metabolism in human hepatocytes assessed as glucuronidation of the compound at 5 uM measured after 1 hr by LC/UV/MS analysis; format: ADME, cell-based, Hepatocyte
# [21] = Volume of distribution in mouse at 5 mg/kg, po or 1.75 mg/kg, iv; format: ADME, organism-based; details: in vivo
# [22] = Oral bioavailability in cynomologus monkey at 0.3 mg/kg; format: ADME, organism-based, Macaca fascicularis; details: cynomolgus monkey, in vivo
# [23] = Volume of distribution in dog at 0.3 mg/kg, po or 0.1 mg/kg, iv; format: ADME, organism-based, Canis lupus familiaris; details: in vivo
# [24] = Volume of distribution in cynomologus monkey at 0.3 mg/kg, po or 0.1 mg/kg, iv; format: ADME, organism-based, Macaca fascicularis; details: cynomolgus monkey, in vivo
# [25] = AUC in dog at 0.3 mg/kg, po; format: ADME, organism-based, Canis lupus familiaris; design: dose 0.3 mg/kg, route po; details: in vivo
# [26] = AUC in rat at 5 mg/kg, po; format: ADME, organism-based; design: dose 5 mg/kg, route po; details: in vivo
# [27] = Drug metabolism in human hepatocytes assessed as oxidative metabolite formation at 5 uM measured after 1 hr by LC/UV/MS analysis; format: ADME, cell-based, Hepatocyte
# [28] = AUC in cynomologus monkey at 0.3 mg/kg, po; format: ADME, organism-based, Macaca fascicularis; design: dose 0.3 mg/kg, route po; details: cynomolgus monkey, in vivo
# [29] = AUC in mouse xenografted with human BR1077F cells at 3 mg/kg, po QD treated as 5 days on and 2 days off regimen for 2 weeks starting from 26 days post tumor implantation; format: ADME, organism-based; design: time 2 weeks, dose 3 mg/kg, route po; details: in vivo
# [30] = Half life in mouse at 1.75 mg/kg, iv; format: ADME, organism-based; details: in vivo
Compound,half-life [1],half-life [2],half-life [3],Ratio [4],IC50 [5],half-life [6],half-life [7],half-life [8],half-life [9],IC50 [10],half-life [11],IC50 [12],half-life [13],half-life [14],also measured
Cc1nnn(C)c1-c1cnc2c3ccc(C(C)(O)C(F)(F)F)c(F)c3n([C@H](c3ccccc3)C3CCOCC3)c2c1 (some centres undefined),58 min,42 min,40 min,1.1,1.5 nM,51 min,120 min,49 min,120 min,3 nM,120 min,9 nM,49 min,120 min,–
Cc1nnn(C)c1-c1cnc2c3ccc(S(C)(=O)=O)cc3n([C@H](c3ccccc3)C3CCOCC3)c2c1,10 min,11 min,41 min,7.3,1.2 nM,–,–,44 min,–,0.9 nM,–,5 nM,12 min,–,–
[2H]C([2H])([2H])c1nnn(C)c1-c1cnc2c3ccc(C(C)(C)O)c(Cl)c3n([C@H](c3ccccc3)C3CCOCC3)c2c1,25 min,35 min,56 min,1.2,1.2 nM,6 min,120 min,35 min,120 min,1.1 nM,120 min,7 nM,30 min,120 min,–
COc1cc2c3ncc(-c4c(C)nnn4C)cc3n([C@H](c3ccccc3)C3CCOCC3)c2cc1C(C)(C)O,5 min,9 min,9 min,1.3,1 nM,–,–,13 min,–,0.8 nM,120 min,4 nM,1 min,–,–
[2H]C([2H])([2H])c1nnn(C)c1-c1cnc2c3cc(Cl)c(C(C)(C)O)cc3n([C@H](c3ccccc3)C3CCOCC3)c2c1,34 min,33 min,38 min,1.4,2 nM,120 min,120 min,39 min,120 min,2.2 nM,120 min,3 nM,45 min,110 min,–
[2H]C([2H])([2H])c1nnn(C)c1-c1cnc2c3c(OC)cc(C(C)(C)O)cc3n([C@H](c3ccccc3)C3CCOCC3)c2c1,28 min,73 min,23 min,> 35,1 nM,120 min,120 min,35 min,120 min,1 nM,120 min,5 nM,11 min,98 min,–
Cc1nnn(C)c1-c1cnc2c3ccc(C(C)(C)O)cc3n([C@H](c3ccccc3)C3CCOCC3)c2c1 [EZOBRESIB],24 min,20 min,33 min,2.6,0.7 nM,61 min,120 min,36 min,120 min,–,120 min,3.6 nM,10 min,115 min,half-life [15]: 120 min; inhibition in vivo at 3 mg/kg [16]: 99%; AUC [17]: 18 µM·h; bioavailability [18]: 59%; Vd [19]: 4.3 L/kg; Drug metabolism [20]: Metabolite_Detected; Vd [21]: 1.9 L/kg; bioavailability [22]: 16%; Vd [23]: 5.3 L/kg; Vd [24]: 4.2 L/kg; AUC [25]: 0.41 µM·h; AUC [26]: 2 µM·h; Drug metabolism [27]: Metabolite_Detected; AUC [28]: 0.085 µM·h; AUC at 336 h [29]: 2.6 µM·h; half-life [30]: 114 min
